Source: PMC12126322, “Characterisation of the thermophilic P450 CYP116B305 identified using metagenomics-derived sequence data from an Australian hot spring” (Applied Microbiology and Biotechnology, 2025)
One block for each compound: values may come before it.

Assays:
[1] = system: CYP116B305; assay: NAD(P)H consumption assay (cofactor preference, oxidation rates); assay type: biochemical, Geminicoccaceae; conditions: for Km: cofactor oxidation in the presence of 2-HPA, read-out: KM of nicotinamide cofactor; for NADH consumption rates / NADPH consumption rates: 33% FMN inclusion, min^−1; for NADH consumption rates (100% FMN rates) / NADPH consumption rates (100% FMN rates): corresponding to full FMN incorporation, approximate maximum
Procedure: The consumption rates were calculated using nonlinear regression (GraphPad Prism), fitting to either the Michaelis–Menten or a quadratic velocity equation to determine the apparent KM and kcat values.

[2] = system: CYP116B305; assay: Cytochrome c reduction assay with NADPH as electron donor; assay type: biochemical, Geminicoccaceae; conditions: cytochrome c as artificial electron acceptor
Procedure: Similarly, a cytochrome c reduction assay was also performed to derive the kinetic parameters, following established protocols (Guengerich et al. [2009]; Tavanti et al. [2018b]). Reactions contained cytochrome c (equine heart, Sigma-Aldrich, 50 µM), CYP116B305 (200 nM), catalase (1 µM), and varying concentrations of NADPH (0.5–200 µM). Cytochrome c reduction was monitored as described above, and nonlinear regression analysis (GraphPad Prism) was utilised to determine the KM and kcat values.

[3] = biological target: CYP116B305; assay: Substrate binding by UV-visible difference spectroscopy (KD, heme spin-state shift); set-up: species or system Geminicoccaceae; conditions: for Kd: difference spectroscopy, CYP116B305 2–4 µM, substrate 0–100 µM; for Spin-state shift (%): low-spin to high-spin heme shift on substrate binding
[4] = system: CYP116B305; assay: In vitro catalytic turnovers and coupling efficiency (GC-MS); assay type: biochemical, Geminicoccaceae; conditions: for Coupling (NADPH): product formed to NADPH consumed
Procedure: The reaction mixtures contained CYP116B305 (1 µM) in KPi buffer (50 mM, pH 7.4), catalase (1 µM), substrate (600 µM), and NAD(P)H (1.2 mM). Reactions were conducted at both room temperature (25 °C) and elevated temperature (45 °C) under constant stirring for 1 h. A control reaction, omitting the P450 enzyme, was also performed. Post-incubation, reaction mixtures were acidified to pH 0–2 with HCl (except for 4-methoxyacetophenone assays), followed by extraction with ethyl acetate (3 × 1 mL). The combined organic phases were dried over magnesium sulphate and concentrated to 100 µL under a stream of nitrogen gas. Concentrated samples were derivatised with N,O-bis(trimethylsilyl)trifluoroacetamide (BSTFA-TMS) before being analysed by gas chromatography–mass spectrometry (GC–MS; Zebron ZB-5MS column 30 m × 0.25 mm × 0.25 µm). The method was 50 °C for 5 min followed by increments of 16 °C min^−1 until 250 °C was reached, then held for 5 min.
For coupling efficiency analysis, the NAD(P)H concentration was reduced to 200 µM, and an internal standard (100 µM) was added to the reactions prior to acidification and extraction. […] In the case of 4-methoxyacetophenone, the reactions were stirred for 2 h, and product formation (4-hydroxyacetophenone) was then quantified using a standard curve generated from 4-hydroxyacetophenone (0.05–1 mM) and an internal standard (fluorene; 100 µM).

[5] = in the presence of 2-HPA, 25 °C

SMILES: NC(=O)C1=CN([C@@H]2O[C@H](COP(=O)(O)OP(=O)(O)OC[C@H]3O[C@@H](n4cnc5c(N)ncnc54)[C@H](OP(=O)(O)O)[C@@H]3O)[C@@H](O)[C@H]2O)C=CC1 [NADPH, reference compound]
Km ([1]; 25 °C): 4.1 ± 0.3 µM | fold lower KM compared to NADH [1, 5]: 15 fold | kcat of nicotinamide cofactor oxidation [1, 5]: 0.217 ± 0.017 s⁻¹ | Km [2]: 1.2 ± 0.1 µM | kcat for NADPH [2]: 0.0683 ± 0.0017 s⁻¹

SMILES: O=C(O)Cc1ccccc1 [Phenylacetic acid]
Kd [3]: 39 ± 11 µM | Spin-state shift (%) [3]: 34 ± 6% | Spin-state shift (%) ([3]; listed as phenylacetic acid): 34 ± 6%

SMILES: NC(=O)C1=CN([C@@H]2O[C@H](COP(=O)(O)OP(=O)(O)OC[C@H]3O[C@@H](n4cnc5c(N)ncnc54)[C@H](O)[C@@H]3O)[C@@H](O)[C@H]2O)C=CC1 [NADH, reference compound]
Km ([1]; 25 °C): 60 ± 15 µM | kcat of nicotinamide cofactor oxidation [1, 5]: 0.65 ± 0.067 s⁻¹

Now from value to compound, other results behind:

Kd [3]: 65 ± 13 µM | Spin-state shift (%) [3]: 17 ± 1% | Spin-state shift (%) ([3]; listed as 4-hydroxyphenylacetic acid): 17 ± 1%
SMILES: O=C(O)Cc1ccc(O)cc1 [4-Hydroxyphenylacetic acid]

Kd [3]: 73 ± 6 µM | Spin-state shift (%) [3]: 26 ± 3% | Spin-state shift (%) ([3]; listed as 4-methoxyacetophenone): 26 ± 3%
SMILES: COc1ccc(C(C)=O)cc1 [4-Methoxyacetophenone]
NADH consumption rates ([1]; 25 °C): 2 ± 1 µM (µM^−1 P450) min^−1 | NADH consumption rates (100% FMN rates) ([1]; 25 °C): ~6 µM (µM^−1 P450) min^−1 | NADH consumption rates ([1]; 45 °C): 3 ± 1 µM (µM^−1 P450) min^−1 | NADPH consumption rates ([1]; 45 °C): 1 ± 1 µM (µM^−1 P450) min^−1 | NADH consumption rates (100% FMN rates) ([1]; 45 °C): ~9 µM (µM^−1 P450) min^−1 | NADPH consumption rates (100% FMN rates) ([1]; 45 °C): ~3 µM (µM^−1 P450) min^−1 | product formation with NADH as electron donor ([4]; 4-hydroxyacetophenone product, NADH): no product was observed | Coupling (NADPH) ([4]; 25 °C): n.q | Coupling (NADPH) ([4]; 45 °C, listed as 4-Methoxy acetophenone): 24 ± 5% | Coupling (NADPH) ([4]; 45 °C, listed as 4-methoxyacetophenone): 24 ± 5%

Kd [3]: 61 ± 19 µM | Spin-state shift (%) [3]: 13 ± 4% | Spin-state shift (%) ([3]; listed as trans-cinnamic acid): 13 ± 4%
SMILES: O=C(O)/C=C/c1ccccc1 [trans-Cinnamic acid]

Kd [3]: 0.4 ± 0.2 µM | Spin-state shift (%) [3]: 90 ± 5% | Spin-state shift (%) ([3]; listed as 3-(2-Hydroxyphenyl)propionic acid (HPPA)): 90 ± 5%
SMILES: O=C(O)CCc1ccccc1O [HPPA, 3-(2-hydroxyphenyl)propionic acid]
NADH consumption rates ([1]; 25 °C): 31 ± 3 µM (µM^−1 P450) min^−1 | NADPH consumption rates ([1]; 25 °C): 11 ± 1 µM (µM^−1 P450) min^−1 | NADPH consumption rates (100% FMN rates) ([1]; 25 °C): ~33 µM (µM^−1 P450) min^−1 | fold increase of NADH oxidation rate ([1]; 45 °C compared to 25 °C): 2.4 fold | fold increase of NADPH oxidation rate ([1]; 45 °C compared to 25 °C): sixfold | NADH consumption rates ([1]; 45 °C): 73 ± 2 µM (µM^−1 P450) min^−1 | NADPH consumption rates ([1]; 45 °C): 65 ± 3 µM (µM^−1 P450) min^−1 | NADH consumption rates (100% FMN rates) ([1]; 45 °C): ~221 µM (µM^−1 P450) min^−1 | NADPH consumption rates (100% FMN rates) ([1]; 45 °C): ~196 µM (µM^−1 P450) min^−1 | Coupling (NADPH) ([4]; 25 °C): 15 ± 2% | Coupling (NADH) ([4]; 45 °C, product formed to NADH consumed): 15 ± 9% | Coupling (NADPH) ([4]; 45 °C): 26 ± 1%

Kd [3]: 43 ± 6 µM | Spin-state shift (%) [3]: 25 ± 2% | Spin-state shift (%) ([3]; listed as salicylic acid): 25 ± 2%
SMILES: O=C(O)c1ccccc1O [Salicylic acid]
